Where “and” joins values, the source holds several entries; their conditions need not be identical. Equal entries are not always repeated.
What was measured:
[1] = tested on: Human; details: oral; cited from earlier work
[2] = tested on: slug, Deroceras reticulatum; experiment: Protection of wheat and pea seeds compared to BAYSOL and […] (Example 3); format: in vivo
Description: In the following experiment, the efficacy of copper oxalate for the protection of seeds was tested and compared to BAYSOL® and […]®. Seeds were coated with an aqueous suspension of copper oxalate, dried and fed to the slug, Deroceras reticulatum.

[3] = tested on: slug, Deroceras reticulatum; experiment: Protection of coated seeds fed to slugs (Example 2); format: in vivo; details: for % Seeds damaged Broad beans After 7 days: coated broad beans; for % Seeds damaged Pea seeds After 5 days / % Seeds damaged Pea seeds After 7 days: coated pea seeds; for % Seeds damaged Wheat seeds After 5 days / % Seeds damaged Wheat seeds After 7 days: coated wheat seeds
Source text: In the following experiment, various seeds were coated with copper oxalate and ferric potassium oxalate, respectively and fed to the slug, Deroceras reticulatum. The damage to these seeds was compared to damage to control seeds, which were left untreated.

[4] = tested on: juvenile Helix aspersa; experiment: Attractancy/repellency test, sectorised filter technique of Bowen and Antoine; format: in vivo; set-up: key to Final Position: R: roof of the container; T: test sector; C: control sector; details: for % Sector Eaten Control / % Sector Eaten Test: overnight; for repellency to snails (summary in words): arena trials, Helix aspersa
Description: One sector of the filter paper was used as the control and this was moistened with distilled water (1 ml). The other half was moistened with the test compound. […] The paper containing the copper oxalate was moistened with water after the addition of the chemical.
Filter sectors were placed on the lid of a plastic tub. The tub was inverted and was used to make a closed test arena. A small gap of 2 mm was left between the two filter sectors so as to prevent mixing of the test paper with the control. One juvenile Helix aspersa was introduced to the control sector and was allowed to remain in the arena overnight.
Attractancy/repellency was detected by dusting the filter paper with charcoal to reveal the slug trails. The results were quantified by placing a transparent grid over the test sectors and measuring the area covered by snail trails. Any phagostimulatory effect of the test compound was indicated by the consumption of the treated paper.

[5] = tested on: snail, Cernuella virgata; experiment: Repellency of copper oxalate in a PVA coating (paint) composition on paper towel (Example 4); format: in vivo
Source text: In the following experiment, the repellency of copper oxalate was investigated when incorporated in a paint composition. In this example, the carrier used was a common aqueous PVA solution sold in Australia under the brand name of Bond Crete.
Thirty-three 1 liter containers were used each with 3 layers of paper towel covering the bottom of the container. Half of the uppermost surface of each of the paper towels was coated with a solution made from 1 part copper oxalate: 10 parts water: 1 part PVA emulsion. This coating was applied at a rate of about 2 ml per 100 cm2 and allowed to dry. The towel was then moistened with approximately 20 ml of water. One snail, Cernuella virgata, was placed in the centre of the paper towels at the border of the coated and the uncoated half in each container. […] The snails consumed some of the untreated paper. […] After 7 days, the number of snails on the treated and untreated sections of the paper towel were counted, together with the number on the sides and lid of the container.

[6] = tested on: Rat; details: oral; cited from earlier work
[7] = after 7 days, 33 containers with one snail each, same coating

For `[Cu+2].[OH-].[OH-]` [Copper hydroxide], the “LD50 (Human)” value [1] is listed as 200 mg/kg.

For `O=C([O-])C(=O)[O-].[Cu+2]` [Copper oxalate, copper oxalate], the “% Seeds damaged Pea seeds After 7 days” value ([2]; pea seeds, 7 days) was 8%, the “% Seeds damaged Wheat seeds After 9 days” value ([2]; wheat seeds, 9 days) was 10% and the “% Seeds damaged Broad beans After 7 days” value [3] was 5%. The “% Seeds damaged Pea seeds After 5 days” value [3] was 7%, the “% Seeds damaged Pea seeds After 7 days” value [3] was 7% and the “% Seeds damaged Wheat seeds After 5 days” value [3] was 0%. The “% Seeds damaged Wheat seeds After 7 days” value [3] was 2%, the “slug repellency for seeds (summary in words)” value ([3]; wheat and pea seeds) was “very effective slug repellent” and the “% Sector Eaten Control” value ([4]; 1.61 mg/cm2, control sector of same arena) was 4%. For the same molecule, the “Final Position” value ([4]; 1.61 mg/cm2, overnight) was “R”, the “% Sector Eaten Test” value ([4]; 1.61 mg/cm2, test sector) was 0% and the “% Covered Control” value ([4]; 1.61 mg/cm2, trail cover of control sector of same arena) was 88%. For the same molecule, the “% Covered Test” value ([4]; 1.61 mg/cm2, trail cover of test sector) was 4.4%, the “% Sector Eaten Control” value ([4]; 2.11 mg/cm2, control sector of same arena) was 5% and the “Final Position” value ([4]; 2.11 mg/cm2, overnight) was “R”. For the same molecule, the “% Sector Eaten Test” value ([4]; 2.11 mg/cm2, test sector) was 0%, the “% Covered Control” value ([4]; 2.11 mg/cm2, trail cover of control sector of same arena) was 71.1% and the “% Covered Test” value ([4]; 2.11 mg/cm2, trail cover of test sector) was 0%. For the same molecule, the “% Sector Eaten Control” value ([4]; 2.43 mg/cm2, control sector of same arena) was 2%, the “Final Position” value ([4]; 2.43 mg/cm2, overnight) was “R” and the “% Sector Eaten Test” value ([4]; 2.43 mg/cm2, test sector) was 0%. For the same molecule, the “% Covered Control” value ([4]; 2.43 mg/cm2, trail cover of control sector of same arena) was 68.9%, the “% Covered Test” value ([4]; 2.43 mg/cm2, trail cover of test sector) was 0% and the “% Sector Eaten Control” value ([4]; 2.47 mg/cm2, control sector of same arena) was 5%. For the same molecule, the “Final Position” value ([4]; 2.47 mg/cm2, overnight) was “R”, the “% Sector Eaten Test” value ([4]; 2.47 mg/cm2, test sector) was 0% and the “% Covered Control” value ([4]; 2.47 mg/cm2, trail cover of control sector of same arena) was 86.7%. For the same molecule, the “% Covered Test” value ([4]; 2.47 mg/cm2, trail cover of test sector) was 0%, the “% Sector Eaten Control” value ([4]; 3.19 mg/cm2, control sector of same arena) was 2% and the “Final Position” value ([4]; 3.19 mg/cm2, overnight) was “C”. The “% Sector Eaten Test” value ([4]; 3.19 mg/cm2, test sector) was 0%, the “% Covered Control” value ([4]; 3.19 mg/cm2, trail cover of control sector of same arena) was 88% and the “% Covered Test” value ([4]; 3.19 mg/cm2, trail cover of test sector) was 0%. The “% Sector Eaten Control” value ([4]; 3.46 mg/cm2, control sector of same arena) was 1%, the “Final Position” value ([4]; 3.46 mg/cm2, overnight) was “R” and the “% Sector Eaten Test” value ([4]; 3.46 mg/cm2, test sector) was 0%. The “% Covered Control” value ([4]; 3.46 mg/cm2, trail cover of control sector of same arena) was 66.7%, the “% Covered Test” value ([4]; 3.46 mg/cm2, trail cover of test sector) was 4.4% and the “repellency to snails (summary in words)” value [4] was “strongly repelled”. For the same molecule, the “repellency in a coating composition (summary in words)” value ([5]; PVA coating composition) was “functions effectively as a mollusc repellent”, the “No. of snails in area: On lid of container” value ([5]; after 7 days, 33 containers with one snail each, coating 1 part copper oxalate: 10 parts water: 1 part PVA emulsion) was 1 and the “No. of snails in area: On Treated half of paper” value [5, 7] was 8. The “No. of snails in area: On side of container” value [5, 7] was 1, the “No. of snails in area: On untreated half of paper” value [5, 7] was 23 and the “consumption of the treated paper” value ([5]; coated half of paper towel, 7 days) was “No consumption”.

For `[Cl-].[Cu+2].[Cu+2].[OH-].[OH-].[OH-]` [Copper oxychloride], the “LD50 (Rat)” value [6] is listed as 700 mg/kg.

For `O=C([O-])C(=O)[O-].O=C([O-])C(=O)[O-].O=C([O-])C(=O)[O-].[Fe+3].[K+].[K+].[K+]` [Ferric potassium oxalate, ferric potassium oxalate], the “% Seeds damaged Broad beans After 7 days” value [3] was 0%, the “% Seeds damaged Pea seeds After 5 days” value [3] was 15% and the “% Seeds damaged Pea seeds After 7 days” value [3] was 17%. The “% Seeds damaged Wheat seeds After 5 days” value [3] was 3% and the “% Seeds damaged Wheat seeds After 7 days” value [3] was 20%.

For Copper acetate, the “LD50 (Rat)” value [6] is given as 595 mg/kg.

In the case of “cetyl tertiary ammonium bromide [CeTAB, reference compound]”, the “% Sector Eaten Control” value ([4]; 0.2 mg/cm2, control sector of same arena) is reported as 4% and 1% and 2%, the “Final Position” value ([4]; 0.2 mg/cm2, overnight) is reported as “R” and the “% Sector Eaten Test” value ([4]; 0.2 mg/cm2, test sector) is reported as 0%. For the same molecule, the “% Covered Control” value ([4]; 0.2 mg/cm2, trail cover of control sector of same arena) was 77.8% and 75.6% and 86.7%, the “% Sector Eaten Control” value ([4]; 2.0 mg/cm2, control sector of same arena) was 4% and 5% and 3% and the “Final Position” value ([4]; 2.0 mg/cm2, overnight) was “R”. The “% Sector Eaten Test” value ([4]; 2.0 mg/cm2, test sector) was 0%, the “% Covered Control” value ([4]; 2.0 mg/cm2, trail cover of control sector of same arena) was 62.2% and 66.6% and 71.1% and the “% Covered Test” value ([4]; 2.0 mg/cm2, trail cover of test sector) was 0%. For the same molecule, the “repellency to snails (summary in words)” value [4] was “act as a repellent”.
